Bridge positions count the residues as written; N and C are the ends. Peptide text beside a SMILES is read from it. * marks the point of attachment. Cypate = CC1(C)C(/C=C/C=C/C=C/C=C2/N(CCC(=O)*)c3ccc4ccccc4c3C2(C)C)=[N+](CCC(=O)O)c2ccc3ccccc3c21
Test system: A549
Assay: Drug uptake in human A549 cells overexpressing […] integrin at 1 uM after 4 to 24 hrs by fluorescence microscopy
Assay type: ADME, cell-based
Conditions: a549, 1 µM; call rule not given here

SMILES | Drug uptake
CC1(C)C(/C=C/C=C/C=C/C=C2/N(CCC(=O)N[C@H]3CSSC[C@@H](C(N)=O)NC(=O)[C@H](CC(=O)O)NC(=O)CNC(=O)[C@H](CCCNC(=N)N)NC3=O)c3ccc4ccccc4c3C2(C)C)=[N+](CCC(=O)O)c2ccc3ccccc3c21 | Active
CC1(C)C(/C=C/C=C/C=C/C=C2/N(CCC(=O)NCCCC[C@@H]3NC(=O)[C@@H](Cc4ccccc4)NC(=O)[C@H](CC(=O)O)NC(=O)CNC(=O)[C@H](CCCNC(=N)N)NC3=O)c3ccc4ccccc4c3C2(C)C)=[N+](CCC(=O)O)c2ccc3ccccc3c21 | Active

Target: Integrin alpha-V/beta-3 (Homo sapiens, UniProt P05106+P06756)
Assay: Displacement of [125I]echistatin from human integrin […] expressed in human A549 cells by binding assay
Assay type: cell-based
Conditions: not given

Integrin alpha-V/beta-3, sequence (P05106 27-788 limits assumed): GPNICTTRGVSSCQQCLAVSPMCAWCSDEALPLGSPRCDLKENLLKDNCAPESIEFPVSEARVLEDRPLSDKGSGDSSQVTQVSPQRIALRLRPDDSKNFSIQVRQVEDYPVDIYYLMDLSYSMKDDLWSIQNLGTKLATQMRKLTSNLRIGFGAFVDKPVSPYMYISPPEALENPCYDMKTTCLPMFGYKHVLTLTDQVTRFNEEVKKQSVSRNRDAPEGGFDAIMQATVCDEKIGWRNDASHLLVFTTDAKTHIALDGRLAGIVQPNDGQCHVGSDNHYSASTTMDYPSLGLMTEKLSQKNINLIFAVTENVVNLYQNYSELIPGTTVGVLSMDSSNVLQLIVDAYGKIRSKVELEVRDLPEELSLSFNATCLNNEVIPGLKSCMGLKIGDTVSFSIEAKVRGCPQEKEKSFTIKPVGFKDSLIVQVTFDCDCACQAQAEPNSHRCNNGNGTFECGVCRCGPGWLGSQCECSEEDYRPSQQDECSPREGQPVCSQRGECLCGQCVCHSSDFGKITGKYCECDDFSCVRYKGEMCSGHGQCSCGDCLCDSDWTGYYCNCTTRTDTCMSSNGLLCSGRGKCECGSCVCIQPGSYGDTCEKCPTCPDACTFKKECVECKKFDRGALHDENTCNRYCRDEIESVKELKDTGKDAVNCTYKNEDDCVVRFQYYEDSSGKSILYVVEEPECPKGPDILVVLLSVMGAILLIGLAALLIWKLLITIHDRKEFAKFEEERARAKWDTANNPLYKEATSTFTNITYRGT
Integrin alpha-V/beta-3, sequence (P06756 31-889 limits assumed): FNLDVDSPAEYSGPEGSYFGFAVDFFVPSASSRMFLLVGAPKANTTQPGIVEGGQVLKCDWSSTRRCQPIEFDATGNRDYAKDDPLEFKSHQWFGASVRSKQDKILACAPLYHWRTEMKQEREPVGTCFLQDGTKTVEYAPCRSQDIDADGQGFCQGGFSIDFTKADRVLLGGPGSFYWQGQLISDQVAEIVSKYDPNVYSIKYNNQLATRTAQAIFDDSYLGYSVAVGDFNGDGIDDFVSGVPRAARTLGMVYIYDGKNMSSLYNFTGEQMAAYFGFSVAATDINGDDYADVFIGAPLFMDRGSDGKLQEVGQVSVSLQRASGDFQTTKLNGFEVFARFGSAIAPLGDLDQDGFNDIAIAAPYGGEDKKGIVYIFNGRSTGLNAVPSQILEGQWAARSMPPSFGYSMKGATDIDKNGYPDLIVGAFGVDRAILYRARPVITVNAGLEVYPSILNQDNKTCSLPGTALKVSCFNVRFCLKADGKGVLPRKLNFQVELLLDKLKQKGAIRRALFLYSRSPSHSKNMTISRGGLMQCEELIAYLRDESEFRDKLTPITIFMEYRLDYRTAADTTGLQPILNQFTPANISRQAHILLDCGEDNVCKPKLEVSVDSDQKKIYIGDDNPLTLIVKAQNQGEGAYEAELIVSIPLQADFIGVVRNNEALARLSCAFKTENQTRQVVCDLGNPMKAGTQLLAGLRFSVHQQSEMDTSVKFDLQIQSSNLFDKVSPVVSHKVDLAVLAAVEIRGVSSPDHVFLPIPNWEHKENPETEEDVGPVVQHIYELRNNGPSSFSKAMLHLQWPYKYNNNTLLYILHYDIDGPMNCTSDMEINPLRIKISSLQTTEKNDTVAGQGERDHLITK
Integrin alpha-V/beta-3, sequence (P06756 891-1048 limits assumed): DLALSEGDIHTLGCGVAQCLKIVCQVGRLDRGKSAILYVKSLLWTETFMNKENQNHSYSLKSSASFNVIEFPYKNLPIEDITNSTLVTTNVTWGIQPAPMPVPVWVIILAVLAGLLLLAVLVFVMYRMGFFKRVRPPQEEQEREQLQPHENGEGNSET

SMILES | IC50 [µM]
CC1(C)C(/C=C/C=C/C=C/C=C2/N(CCC(=O)NCCCC[C@@H]3NC(=O)[C@@H](Cc4ccccc4)NC(=O)[C@H](CC(=O)O)NC(=O)CNC(=O)[C@H](CCCNC(=N)N)NC3=O)c3ccc4ccccc4c3C2(C)C)=[N+](CCC(=O)O)c2ccc3ccccc3c21 | 0.72
CC1(C)C(/C=C/C=C/C=C/C=C2/N(CCC(=O)N[C@H]3CSSC[C@@H](C(N)=O)NC(=O)[C@H](CC(=O)O)NC(=O)[C@@H]4CCCN4C(=O)[C@H](CCCNC(=N)N)NC3=O)c3ccc4ccccc4c3C2(C)C)=[N+](CCC(=O)O)c2ccc3ccccc3c21 (Cypate-CRPDC-NH2; disulfide 1-5) | > 10
CC(C)[C@@H]1NC(=O)[C@H](CCCNC(=N)N)NC(=O)[C@@H](NC(=O)CCN2/C(=C/C=C/C=C/C=C/C3=[N+](CCC(=O)O)c4ccc5ccccc5c4C3(C)C)C(C)(C)c3c2ccc2ccccc32)CSSC[C@@H](C(N)=O)NC(=O)[C@H](CC(=O)O)NC1=O (Cypate-CRVDC-NH2; disulfide 1-5) | > 10
CC1(C)C(/C=C/C=C/C=C/C=C2/N(CCC(=O)N[C@H]3CSSC[C@@H](C(N)=O)NC(=O)[C@H](CC(=O)O)NC(=O)[C@H](Cc4ccc(O)cc4)NC(=O)[C@H](CCCNC(=N)N)NC3=O)c3ccc4ccccc4c3C2(C)C)=[N+](CCC(=O)O)c2ccc3ccccc3c21 (Cypate-CRYDC-NH2; disulfide 1-5) | > 10

Reference: ChEMBL document CHEMBL1759926, “Exploring new near-infrared fluorescent disulfide-based cyclic RGD peptide analogs for potential integrin-targeted optical imaging” (Bioorg Med Chem Lett, 2011)
